As usually defined, the half-life is how long it takes for the measured level to halve. One may read the IC50 as the concentration needed to halve the response being measured. Lower therefore signals inhibition by little substance. By Kd is commonly meant a measure of binding affinity in units of concentration. As usually defined, the koff is the first-order rate constant of dissociation.

Data set [1] in a line: Metabolic stability in human liver microsomes assessed as half life measured after 5 mins in presence of NADPH and UDPGA by LC-MS/MS analysis. It counts as ADME, Microsome. For orientation: Microsomes from liver hold many membrane-bound enzymes, among them those of drug oxidation.
Data set [2] concerns HCT-116. Put plainly: cells. As to conditions: Homo sapiens, HCT-116, 72 h.
Data set [3] is described as follows: Binding affinity to recombinant PRC2 complex (unknown origin) incubated for 90 seconds by surface plasmon resonance assay. Set-up: species or system Homo sapiens. For orientation: In SPR one partner is held on a chip, and binding of the other changes the refractive index at the surface.
In data set [4] the test system is SU-DHL10. As to conditions: time 72 hrs.
Data set [5] concerns HL-60. Put plainly: cells. As to conditions: Homo sapiens, HL-60, 72 h.
For a further data set, the species on record is Homo sapiens. As to conditions: time 90.0 sec.
Data set [6] deals with HCT-116. As to conditions: time 72 hrs.
Data set [7] has as its system MDA-MB-231. In words: cells. As to conditions: Homo sapiens, MDA-MB-231, 72 h.
Data set [8] has as its system HL-60. As to conditions: time 72 hrs.
Data set [9] relates to MV4-11. Put plainly: cells. As to conditions: Homo sapiens, MV4-11, 72 h.
Data set [10] has as its system MV4-11. Put plainly: animal or person. The settings on record: Mus musculus, MV4-11, 480 h, route ip, time 20 day, read-out: TGI. It counts as functional, Homo sapiens.
In data set [11] the test system is SU-DHL10. In words: cells. The settings on record: Homo sapiens, SU-DHL10, 72 h.
In data set [12] the test system is MV4-11. As to conditions: time 72 hrs.
The test system of data set [13] is MDA-MB-231. As to conditions: time 72 hrs.
The next data set addresses Histone deacetylase 1 (Homo sapiens, UniProt Q13547). Put plainly: Inhibition of HDAC1 (unknown origin) preincubated for 5 mins followed by substrate addition and measured after 30 mins by multimode microplate reader analysis.
Data set [14] concerns the target T1, Protein deacetylase HDAC6 (Homo sapiens, UniProt Q9UBN7).
T1 sequence (Q9UBN7 whole entry): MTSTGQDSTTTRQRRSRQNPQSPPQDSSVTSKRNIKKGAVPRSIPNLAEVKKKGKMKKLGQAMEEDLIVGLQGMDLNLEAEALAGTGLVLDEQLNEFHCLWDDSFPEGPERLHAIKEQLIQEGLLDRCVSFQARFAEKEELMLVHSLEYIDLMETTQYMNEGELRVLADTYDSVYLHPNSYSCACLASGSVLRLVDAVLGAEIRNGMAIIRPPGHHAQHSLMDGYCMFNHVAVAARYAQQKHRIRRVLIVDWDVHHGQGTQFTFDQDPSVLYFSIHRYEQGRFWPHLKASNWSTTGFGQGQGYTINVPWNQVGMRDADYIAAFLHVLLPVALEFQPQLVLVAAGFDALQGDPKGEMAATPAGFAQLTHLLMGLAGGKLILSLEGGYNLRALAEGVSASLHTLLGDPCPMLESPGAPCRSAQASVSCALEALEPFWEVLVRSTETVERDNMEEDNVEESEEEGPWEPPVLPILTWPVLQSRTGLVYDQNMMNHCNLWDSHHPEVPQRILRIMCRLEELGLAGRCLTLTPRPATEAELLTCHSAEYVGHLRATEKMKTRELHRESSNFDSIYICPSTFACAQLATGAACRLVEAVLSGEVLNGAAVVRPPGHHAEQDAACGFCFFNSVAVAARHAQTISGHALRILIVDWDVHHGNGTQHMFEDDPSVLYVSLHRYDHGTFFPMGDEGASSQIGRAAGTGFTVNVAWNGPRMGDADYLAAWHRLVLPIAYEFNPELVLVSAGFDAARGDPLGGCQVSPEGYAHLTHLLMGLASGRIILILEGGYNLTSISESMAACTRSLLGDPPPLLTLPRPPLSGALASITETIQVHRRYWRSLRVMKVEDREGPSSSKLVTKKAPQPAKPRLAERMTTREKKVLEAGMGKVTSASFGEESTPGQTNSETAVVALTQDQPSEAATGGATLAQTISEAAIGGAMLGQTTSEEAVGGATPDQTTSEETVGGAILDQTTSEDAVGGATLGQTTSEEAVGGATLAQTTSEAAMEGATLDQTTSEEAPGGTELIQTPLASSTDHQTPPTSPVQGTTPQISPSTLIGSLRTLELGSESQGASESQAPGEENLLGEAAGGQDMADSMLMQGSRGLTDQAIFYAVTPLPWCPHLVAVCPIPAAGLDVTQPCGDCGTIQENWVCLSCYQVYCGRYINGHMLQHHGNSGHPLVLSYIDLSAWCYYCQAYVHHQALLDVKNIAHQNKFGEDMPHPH
In words: Inhibition of HDAC6 (unknown origin) preincubated for 5 mins followed by substrate addition and measured after 30 mins by multimode microplate reader analysis.

A short description of data set [15]: Binding affinity to recombinant PRC2 complex (unknown origin) assessed as dissociation rate constant incubated for 90 seconds by surface plasmon resonance assay. Details: species or system Homo sapiens.

SMILES strings stand for the structures.

Histone deacetylase 1, sequence (Q13547 whole entry): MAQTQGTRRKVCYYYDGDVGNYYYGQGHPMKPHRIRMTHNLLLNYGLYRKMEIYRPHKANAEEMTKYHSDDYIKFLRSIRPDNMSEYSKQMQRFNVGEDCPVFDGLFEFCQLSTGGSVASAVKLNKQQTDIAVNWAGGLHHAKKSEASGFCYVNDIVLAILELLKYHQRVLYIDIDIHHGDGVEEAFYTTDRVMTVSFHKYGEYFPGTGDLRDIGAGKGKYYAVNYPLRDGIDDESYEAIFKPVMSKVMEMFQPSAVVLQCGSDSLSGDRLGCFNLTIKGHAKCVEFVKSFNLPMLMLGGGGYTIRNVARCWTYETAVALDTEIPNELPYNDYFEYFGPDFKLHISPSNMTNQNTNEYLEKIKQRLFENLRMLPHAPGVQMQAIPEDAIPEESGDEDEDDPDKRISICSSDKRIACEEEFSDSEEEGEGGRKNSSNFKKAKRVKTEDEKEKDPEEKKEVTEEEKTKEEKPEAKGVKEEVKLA

Turning to `Cc1cc(C)c(CNC(=O)c2cc(-c3ccc(N4CCN(c5ncc(C(=O)Nc6ccccc6N)cn5)CC4)nc3)cc3c2cnn3C(C)C)c(=O)[nH]1`, the half-life in data set [1] amounted to 17.7 min.

Regarding `CC[C@@H](C)n1cc(C)c2c(C(=O)NCc3c(C)cc(C)[nH]c3=O)cc(-c3ccc(N4CCNCC4)nc3)cc21`, the IC50 was 8860 nM with HCT-116 [2]; 12000 nM in the data set on HL-60 [5]; 15200 nM in the data set with MDA-MB-231 [7]; 5150 nM with MV4-11 [9]; 7220 nM in the data set with SU-DHL10 [11]. Moreover, the Kd in [3] worked out at 73 nM. For the same molecule, the CI in the data set on SU-DHL10 [4] was 0.8; with HCT-116 [6] it was 0.91; with HL-60 [8], 0.65; in the data set with MV4-11 [12], 0.38; in the data set on MDA-MB-231 [13], 1.2. Also, the Ka in the data set listed under Homo sapiens is 2.52 10^4/M/s. In addition, the inhibition in vivo at 100 mg/kg with MV4-11 [10] was 52.7%.

As for `CCN(c1cc(-c2ccc(N3CCN(CCCCCCCCC(=O)NO)CC3)nc2)cc(C(=O)NCc2c(C)cc(C)[nH]c2=O)c1C)C1CCOCC1`, the IC50 against Histone deacetylase 1 amounted to 4020 nM; with HCT-116 [2] it was 4110 nM; in the data set with HL-60 [5] it was 1670 nM; in data set [14], 1900 nM; in the data set on MDA-MB-231 [7], 5080 nM; in the data set on MV4-11 [9] it was 1530 nM. Half-maximal inhibition with SU-DHL10 [11] (IC50) was put at 1870 nM. For the same molecule, in data set [3], the dissociation constant (Kd) was 440 nM. Moreover, the koff in [15] worked out at 0.045 s⁻¹.

As for `CC[C@@H](C)n1cc(C)c2c(C(=O)NCc3c(C)cc(C)[nH]c3=O)cc(-c3ccc(N4CCN(CCCCCCCCC(=O)NO)CC4)nc3)cc21`, the IC50 on Histone deacetylase 1 is > 10000 nM; in the data set with HCT-116 [2], 3740 nM; in the data set with HL-60 [5] it was 860 nM; in [14] it was 2810 nM; in the data set with MDA-MB-231 [7] it was 5330 nM; in the data set with MV4-11 [9] it was 740 nM. The same molecule came in with an IC50 with SU-DHL10 [11] of 2020 nM. Also, the Kd in data set [3] was determined as 75 nM. For the same molecule, the koff in data set [15] stood at 0.0078 s⁻¹.

Take `C=C(CCCCCNc1cc(-c2ccc(N3CCN(C(=O)OC(C)(C)C)CC3)nc2)cc(C(=O)NCc2c(C)cc(C)[nH]c2=O)c1C)NO`: the IC50 against Histone deacetylase 1 (time 35.0 min) was 5820 nM; with HCT-116 [2], > 20000 nM; in the data set with HL-60 [5] it was 17800 nM; in [14], 1230 nM; with MDA-MB-231 [7] it was > 20000 nM; in the data set on MV4-11 [9], 17700 nM. In the data set on SU-DHL10 [11], this molecule showed an IC50 of 12900 nM. In addition, the Kd in data set [3] was determined as 280 nM. The koff in data set [15] worked out at 0.16 s⁻¹.

With `Cc1cc(C)c(CNC(=O)c2cc(-c3ccc(N4CCN(Cc5ccc(C(=O)NO)o5)CC4)nc3)cc3c2cnn3C(C)C)c(=O)[nH]1`, the IC50 on Histone deacetylase 1 was > 10000 nM; in the data set with HCT-116 [2] it was > 20000 nM; in the data set on HL-60 [5], > 20000 nM; in data set [14], 8840 nM; with MDA-MB-231 [7], > 20000 nM; with MV4-11 [9] it was 8210 nM. Moreover, the midpoint of inhibition in the data set with SU-DHL10 [11], the IC50, lay at 15200 nM. In data set [3], the Kd turned out to be 410 nM. For the same molecule, the koff in data set [15] amounted to 0.042 s⁻¹.

On to `Cc1cc(C)c(CNC(=O)c2cc(-c3ccc(N4CCN(C(C)C)CC4)nc3)cc3c2cnn3C(C)C)c(=O)[nH]1`, for which the half-inhibitory concentration (IC50) in the data set with HCT-116 [2] was > 20000 nM; with HL-60 [5] it was > 20000 nM; in the data set on MDA-MB-231 [7] it was > 20000 nM; with MV4-11 [9], 11100 nM; in the data set with SU-DHL10 [11], > 20000 nM. For the same molecule, the Kd in [3] stood at 21 nM. Besides, the CI was determined as 0.78 in the data set on SU-DHL10 [4]; 0.89 with HCT-116 [6]; 0.77 with HL-60 [8]; 0.43 with MV4-11 [12]; 1.6 in the data set with MDA-MB-231 [13].

Take `CCN(c1cc(-c2ccc(N3CCN(c4ncc(C(=O)NO)cn4)CC3)nc2)cc(C(=O)NCc2c(C)cc(C)[nH]c2=O)c1C)C1CCOCC1`: the IC50 on Histone deacetylase 1 was 540 nM; in the data set with HCT-116 [2] it was 6540 nM; in the data set on HL-60 [5], 1880 nM; in data set [14], 2580 nM; in the data set with MDA-MB-231 [7], 7820 nM; in the data set on MV4-11 [9] it was 480 nM. For the same molecule, inhibition in the data set on SU-DHL10 [11] was half-maximal at 820 nM (IC50). In addition, the Kd in data set [3] is 290 nM. Besides, the koff in data set [15] stood at 0.025 s⁻¹.

Consider `Cc1cc(C)c(CNC(=O)c2cc(-c3ccc(N4CCN(C(=O)OC(C)(C)C)CC4)nc3)cc(NCCCCC(=O)NO)c2C)c(=O)[nH]1`, for which the IC50 against Histone deacetylase 1 (time 35.0 min) is 2840 nM; with HCT-116 [2], > 20000 nM; in the data set with HL-60 [5], 14200 nM; in data set [14], > 10000 nM; in the data set with MDA-MB-231 [7], > 20000 nM; with MV4-11 [9], 6180 nM. The 50% inhibitory concentration (IC50) with SU-DHL10 [11] was found to be 12100 nM. Besides, the Kd in data set [3] stood at 240 nM. Also, the koff in data set [15] is 0.049 s⁻¹.

Consider `Cc1cc(C)c(CNC(=O)c2cc(-c3ccc(N4CCN(C(=O)CCCCCCC(=O)NO)CC4)nc3)cc3c2cnn3C(C)C)c(=O)[nH]1`, for which the IC50 at Histone deacetylase 1 was found to be 940 nM; in the data set on HCT-116 [2], 7040 nM; in the data set on HL-60 [5], 8410 nM; in data set [14], 82 nM; in the data set on MDA-MB-231 [7], 8740 nM; in the data set with MV4-11 [9] it was 1150 nM. Further, the IC50 in the data set with SU-DHL10 [11] came to 1730 nM. Moreover, in data set [3], the Kd stood at 84 nM. Also, the koff in data set [15] came out at 0.023 s⁻¹.

Turning to `Cc1cc(C)c(CNC(=O)c2cc(-c3ccc(N4CCN(CCCCCCCCC(=O)NO)CC4)nc3)cc3c2cnn3C(C)C)c(=O)[nH]1`, the IC50 is 700 nM against Histone deacetylase 1; 2240 nM with HCT-116 [2]; 1220 nM in the data set on HL-60 [5]; 390 nM in data set [14]; 5180 nM in the data set with MDA-MB-231 [7]; 570 nM in the data set with MV4-11 [9]. In the data set on SU-DHL10 [11], this molecule showed an IC50 of 1220 nM. Moreover, the Kd in [3] is 97 nM. For the same molecule, the koff in data set [15] amounted to 0.044 s⁻¹.

The values above are taken from ChEMBL document CHEMBL5108052, “Histone Deacetylase and Enhancer of Zeste Homologue 2 Dual Inhibitors Presenting a Synergistic Effect for the Treatment of Hematological Malignancies” (J Med Chem, 2022).
